Activity calls are given as the source filed them. No cut-off for these calls is given here.
Tests used:
[1] = Prodrug conversion in SARS-CoV-2 infected in African green monkey assessed as (2R,3R,4S,5R)-2-(4-aminopyrrolo[2,1-f][1,2,4]triazin-7-yl)-3,4-dihydroxy-5-(hydroxymethyl)tetrahydrofuran-2-carbonitrile mediated log10 reduction of genomic RNA at 10 mg/kg, iv qd administered for day 1 followed by 5 mg/kg administration measured after 6 days by RT-qPCR analysis; format: ADME, organism-based, Severe acute respiratory syndrome coronavirus 2; conditions: in vivo, time 6 day
[2] = Cmax in African green monkey infected with SARS-CoV-2 assessed as prodrug conversion by measuring (2R,3R,4S,5R)-2-(4-aminopyrrolo[2,1-f][1,2,4]triazin-7-yl)-3,4-dihydroxy-5-(hydroxymethyl)tetrahydrofuran-2-carbonitrile at 10 mg/kg, iv qd administered for day 1 followed by 5 mg/kg administration measured after 6 days by LC-MS/MS analysis; format: ADME, organism-based, Severe acute respiratory syndrome coronavirus 2; set-up: dose 10 mg/kg, time 6 day, route iv; conditions: in vivo
[3] = Stability of compound in dog plasma assessed as half life measured upto 4 hrs by LC-MS/MS analysis; format: ADME, cell-free, Canis lupus familiaris
CES1c = experiment: Stability of compound assessed as human recombinant CES1c-mediated compound hydrolysis by measuring half life at pH 7.4 using oseltamivir as substrate measured upto 120 mins by LC-MS/MS analysis; format: ADME; conditions: pH 7.4, probe oseltamivir
[4] = AUC(0 to 24 hrs) in African green monkey assessed as prodrug conversion by measuring (2R,3R,4S,5R)-2-(4-aminopyrrolo[2,1-f][1,2,4]triazin-7-yl)-3,4-dihydroxy-5-(hydroxymethyl)tetrahydrofuran-2-carbonitrile at 60 mg/kg, po measured upto 24 hrs by LC-MS/MS analysis; format: ADME, organism-based; set-up: time < 24 hrs, dose 60 mg/kg, route po; conditions: chlorocebus sabaeus, in vivo
[5] = Oral bioavailability in cynomolgus monkey assessed as prodrug conversion by measuring (2R,3R,4S,5R)-2-(4-aminopyrrolo[2,1-f][1,2,4]triazin-7-yl)-3,4-dihydroxy-5-(hydroxymethyl)tetrahydrofuran-2-carbonitrile at 11.7 mg/kg administered in solid form measured upto 24 hrs by LC-MS/MS analysis; format: ADME, organism-based, Macaca fascicularis; conditions: in vivo
[6] = Half life in African green monkey assessed as prodrug conversion by measuring (2R,3R,4S,5R)-2-(4-aminopyrrolo[2,1-f][1,2,4]triazin-7-yl)-3,4-dihydroxy-5-(hydroxymethyl)tetrahydrofuran-2-carbonitrile at 86.5 mg/kg, po measured upto 24 hrs by LC-MS/MS analysis; format: ADME, organism-based; conditions: chlorocebus sabaeus, in vivo
SARS-CoV-2 [7] = experiment: Antiviral activity against SARS-CoV-2 infected in African green monkey assessed as reduction in genomic RNA load in BALF at 60 to 120 mg/kg, po qd administered for 6 days starting from 8 hrs post infection by RT-qPCR analysis; format: functional, organism-based; conditions: Severe acute respiratory syndrome coronavirus 2, dose lower 60.0 mg/kg, dose upper […], time 6.0 day
SARS-CoV-2 [8] = experiment: Antiviral activity against SARS-CoV-2 infected in African green monkey assessed as reduction in genomic RNA load in BALF at 60 mg/kg, po qd administered for 1 day starting from 8 hrs post infection by RT-qPCR analysis; format: functional, organism-based; conditions: Severe acute respiratory syndrome coronavirus 2
CES2 (cocaine esterase) = biological target: T1, CES2 (cocaine esterase) (Homo sapiens, UniProt O00748); experiment: Stability of compound assessed as human recombinant CES2-mediated compound hydrolysis by measuring half life at pH 7.4 using oseltamivir as substrate measured upto 120 mins by LC-MS/MS analysis; format: ADME; conditions: recombinant CES2, pH 7.4, probe oseltamivir
T1 sequence (O00748 whole entry): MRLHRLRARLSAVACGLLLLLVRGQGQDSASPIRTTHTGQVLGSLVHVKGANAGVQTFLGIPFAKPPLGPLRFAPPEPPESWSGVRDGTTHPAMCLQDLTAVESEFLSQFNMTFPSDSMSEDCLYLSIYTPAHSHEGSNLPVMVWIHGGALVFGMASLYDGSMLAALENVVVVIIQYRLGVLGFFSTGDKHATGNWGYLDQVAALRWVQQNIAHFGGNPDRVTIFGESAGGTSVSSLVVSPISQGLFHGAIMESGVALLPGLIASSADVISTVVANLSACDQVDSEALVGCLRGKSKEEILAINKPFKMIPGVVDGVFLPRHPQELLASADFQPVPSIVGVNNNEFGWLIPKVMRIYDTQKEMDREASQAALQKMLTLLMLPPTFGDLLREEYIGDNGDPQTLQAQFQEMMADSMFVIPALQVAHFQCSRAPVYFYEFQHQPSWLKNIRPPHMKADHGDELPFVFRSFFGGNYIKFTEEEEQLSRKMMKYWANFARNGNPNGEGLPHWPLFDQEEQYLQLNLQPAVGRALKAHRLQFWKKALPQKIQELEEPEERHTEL

[9] = Oral bioavailability in African green monkey assessed as prodrug conversion by measuring (2R,3R,4S,5R)-2-(4-aminopyrrolo[2,1-f][1,2,4]triazin-7-yl)-3,4-dihydroxy-5-(hydroxymethyl)tetrahydrofuran-2-carbonitrile at […] measured upto 24 hrs by LC-MS/MS analysis; format: ADME, organism-based; conditions: chlorocebus sabaeus, in vivo
SARS-CoV-2 [10] = experiment: Antiviral activity against SARS-CoV-2 infected in African green monkey assessed as reduction in viral titer in terminal respiratory tissue at 60 to 120 mg/kg, po qd administered for 6 days starting from 8 hrs post infection by PFA assay; format: functional, organism-based; conditions: Severe acute respiratory syndrome coronavirus 2, dose lower 60.0 mg/kg, dose upper […], time 6.0 day
[11] = Oral bioavailability in dog assessed as prodrug conversion by measuring (2R,3R,4S,5R)-2-(4-aminopyrrolo[2,1-f][1,2,4]triazin-7-yl)-3,4-dihydroxy-5-(hydroxymethyl)tetrahydrofuran-2-carbonitrile at […] measured upto 24 hrs by LC-MS/MS analysis; format: ADME, organism-based, Canis lupus familiaris; conditions: in vivo
[12] = Drug metabolism in human NHBE-T cells assessed as Nucleotide triphosphate metabolite formation at 10 uM measured after 48 hrs by LC-MS analysis; format: ADME, cell-based
[13] = AUC(0 to 24 hrs) in African green monkey at […], po measured upto 24 hrs by LC-MS/MS analysis; format: ADME, organism-based; conditions: chlorocebus sabaeus, in vivo
[14] = AUC(0 to 24 hrs) in dog assessed as prodrug conversion by measuring (2R,3R,4S,5R)-2-(4-aminopyrrolo[2,1-f][1,2,4]triazin-7-yl)-3,4-dihydroxy-5-(hydroxymethyl)tetrahydrofuran-2-carbonitrile at […], po measured upto 24 hrs by LC-MS/MS analysis; format: ADME, organism-based, Canis lupus familiaris; conditions: in vivo
[15] = Stability of compound in human gastrointestinal S9 fraction assessed as half life at pH 7.4 measured upto 120 mins by LC-MS/MS analysis; format: ADME, subcellular, Gastrointestinal tract

Structure (SMILES)	log(activity) [1]	Cmax [2]	half-life [3]	half-life (CES1c)	AUC [4]	F [5]	t1/2 [6]	Activity (SARS-CoV-2 [7])	Activity (SARS-CoV-2 [8])	half-life (CES2 (cocaine esterase))	F [9]	Activity (SARS-CoV-2 [10])	F [11]	Drug metabolism [12]	AUC [13]	AUC [14]	half-life [15]
CCC(CC)COC(=O)[C@H](C)N[P@](=O)(OC[C@H]1O[C@@](C#N)(c2ccc3c(N)ncnn23)[C@H](O)[C@@H]1O)Oc1ccccc1	-1.38	1230 nM	–	–	–	–	–	–	–	–	–	–	–	–	–	–	–
CC(C)C(=O)OC[C@H]1O[C@@](C#N)(c2ccc3c(N)ncnn23)[C@H](O)[C@@H]1O [OBELDESIVIR]	–	–	412 min	4.3 min	129 µM·h	18%	179 min	Active	inactive	< 2 min	31%	Active	93%	Metabolite_Detected	0.02 µM·h	202 µM·h	< 2 min

Source: ChEMBL document CHEMBL5321279 (J Med Chem, 2023)
